Like-named read-outs stand apart in the source and are kept apart here.
Tests used:
[1] = format: physicochemical; conditions: stored at room temperature (21-25° C.)
Description: At each time period, 0.05 g of powder was dissolved in 10 ml-15 of ethanol, diluted to fall within the analytical range, and injected into the LCMSMS for analysis.

[2] = Stability of cannabinoid and Vitamin E components of Beverage 2 (AB Red) stored at 8° C. and 21-25° C., LCMSMS over 570 days
Description: The LCMSMS was calibrated for 0-50 ng/ml cannabinoids with the same resin material used in the preparation of the concentrates. At each time period, 100 μml of beverage was diluted with 10 ml of methanol and injected into the LCMSMS for analysis.

CC(=O)Oc1c(C)c(C)c2c(c1C)CCC(C)(CCC[C@H](C)CCC[C@H](C)CCCC(C)C)O2 (stereo partly drawn) [α-Tocopheryl acetate]
Stability in Powder Concentrate (content by LCMSMS) ([1]; day 0): 2.15 mg/g powder
Stability in Powder Concentrate (content by LCMSMS) ([1]; day 1): 2.19 mg/g powder
Stability in Powder Concentrate (content by LCMSMS) ([1]; day 2): 2.11 mg/g powder
Stability in Powder Concentrate (content by LCMSMS) ([1]; day 3): 2.18 mg/g powder
Stability in Powder Concentrate (content by LCMSMS) ([1]; day 5): 2.24 mg/g powder
Stability in Powder Concentrate (content by LCMSMS) ([1]; day 8): 2.23 mg/g powder
Stability in Powder Concentrate (content by LCMSMS) ([1]; day 9): 2.09 mg/g powder
Stability in Powder Concentrate (content by LCMSMS) ([1]; day 10): 2.09 mg/g powder
Stability in Powder Concentrate (content by LCMSMS) ([1]; day 11): 2.20 mg/g powder
Stability in Powder Concentrate (content by LCMSMS) ([1]; day 12): 2.17 mg/g powder
Stability in Powder Concentrate (content by LCMSMS) ([1]; day 15): 2.24 mg/g powder
Stability in Powder Concentrate (content by LCMSMS) ([1]; day 16): 2.15 mg/g powder
Stability in Powder Concentrate (content by LCMSMS) ([1]; day 17): 2.13 mg/g powder
Stability in Powder Concentrate (content by LCMSMS) ([1]; day 18): 2.10 mg/g powder
Stability in Powder Concentrate (content by LCMSMS) ([1]; day 19): 2.21 mg/g powder
Stability in Powder Concentrate (content by LCMSMS) ([1]; day 22): 2.11 mg/g powder
Stability in Powder Concentrate (content by LCMSMS) ([1]; day 23): 2.16 mg/g powder
Stability in Powder Concentrate (content by LCMSMS) ([1]; day 24): 2.09 mg/g powder
Stability in Powder Concentrate (content by LCMSMS) ([1]; day 25): 2.24 mg/g powder
Stability in Powder Concentrate (content by LCMSMS) ([1]; day 26): 2.10 mg/g powder
Stability in Powder Concentrate (content by LCMSMS) ([1]; day 29): 2.21 mg/g powder
Stability in Powder Concentrate (content by LCMSMS) ([1]; day 30): 2.08 mg/g powder
Stability in Powder Concentrate (content by LCMSMS) ([1]; day 60): 2.15 mg/g powder
Stability in Powder Concentrate (content by LCMSMS) ([1]; day 90): 2.24 mg/g powder
Stability in Powder Concentrate (content by LCMSMS) ([1]; day 120): 2.17 mg/g powder
Stability in Powder Concentrate (content by LCMSMS) ([1]; day 150): 2.18 mg/g powder
Stability in Powder Concentrate (content by LCMSMS) ([1]; day 180): 2.20 mg/g powder
Stability in Powder Concentrate (content by LCMSMS) ([1]; day 210): 2.15 mg/g powder
Stability in Powder Concentrate (content by LCMSMS) ([1]; day 240): 2.23 mg/g powder
Stability in Powder Concentrate (content by LCMSMS) ([1]; day 270): 2.13 mg/g powder
Stability in Powder Concentrate (content by LCMSMS) ([1]; day 300): 2.09 mg/g powder
Stability in Powder Concentrate (content by LCMSMS) ([1]; day 330): 2.15 mg/g powder
Stability in Powder Concentrate (content by LCMSMS) ([1]; day 360): 2.12 mg/g powder
Stability in Powder Concentrate (content by LCMSMS) ([1]; day 390): 2.21 mg/g powder
Stability in Powder Concentrate (content by LCMSMS) ([1]; day 420): 2.21 mg/g powder
Stability in Powder Concentrate (content by LCMSMS) ([1]; day 450): 2.07 mg/g powder
Stability in Powder Concentrate (content by LCMSMS) ([1]; day 480): 2.10 mg/g powder
Stability in Powder Concentrate (content by LCMSMS) ([1]; day 510): 2.15 mg/g powder
Stability in Powder Concentrate (content by LCMSMS) ([1]; day 540): 2.21 mg/g powder
Stability in Powder Concentrate (content by LCMSMS) ([1]; day 570): 2.13 mg/g powder
Stability of Vitamin Es in AB Red ([2]; 8° C., 0 days): 12.5 µg/mL
Stability of Vitamin Es in AB Red ([2]; 8° C., 1 days): 11.6 µg/mL
Stability of Vitamin Es in AB Red ([2]; 8° C., 2 days): 11.5 µg/mL
Stability of Vitamin Es in AB Red ([2]; 8° C., 3 days): 11.6 µg/mL
Stability of Vitamin Es in AB Red ([2]; 8° C., 5 days): 12.3 µg/mL
Stability of Vitamin Es in AB Red ([2]; 8° C., 8 days): 12.2 µg/mL
Stability of Vitamin Es in AB Red ([2]; 8° C., 9 days): 12.1 µg/mL
Stability of Vitamin Es in AB Red ([2]; 8° C., 10 days): 12.6 µg/mL
Stability of Vitamin Es in AB Red ([2]; 8° C., 11 days): 11.9 µg/mL
Stability of Vitamin Es in AB Red ([2]; 8° C., 12 days): 12.4 µg/mL
Stability of Vitamin Es in AB Red ([2]; 8° C., 15 days): 12.0 µg/mL
Stability of Vitamin Es in AB Red ([2]; 8° C., 16 days): 11.5 µg/mL
Stability of Vitamin Es in AB Red ([2]; 8° C., 17 days): 11.8 µg/mL
Stability of Vitamin Es in AB Red ([2]; 8° C., 18 days): 12.5 µg/mL
Stability of Vitamin Es in AB Red ([2]; 8° C., 19 days): 12.5 µg/mL
Stability of Vitamin Es in AB Red ([2]; 8° C., 22 days): 12.5 µg/mL
Stability of Vitamin Es in AB Red ([2]; 8° C., 23 days): 11.9 µg/mL
Stability of Vitamin Es in AB Red ([2]; 8° C., 24 days): 12.6 µg/mL
Stability of Vitamin Es in AB Red ([2]; 8° C., 25 days): 12.3 µg/mL
Stability of Vitamin Es in AB Red ([2]; 8° C., 26 days): 11.6 µg/mL
Stability of Vitamin Es in AB Red ([2]; 8° C., 29 days): 11.7 µg/mL
Stability of Vitamin Es in AB Red ([2]; 8° C., 30 days): 12.1 µg/mL
Stability of Vitamin Es in AB Red ([2]; 8° C., 60 days): 11.4 µg/mL
Stability of Vitamin Es in AB Red ([2]; 8° C., 90 days): 11.6 µg/mL
Stability of Vitamin Es in AB Red ([2]; 8° C., 120 days): 11.7 µg/mL
Stability of Vitamin Es in AB Red ([2]; 8° C., 150 days): 12.3 µg/mL
Stability of Vitamin Es in AB Red ([2]; 8° C., 180 days): 12.6 µg/mL
Stability of Vitamin Es in AB Red ([2]; 8° C., 210 days): 11.8 µg/mL
Stability of Vitamin Es in AB Red ([2]; 8° C., 240 days): 11.2 µg/mL
Stability of Vitamin Es in AB Red ([2]; 8° C., 270 days): 11.6 µg/mL
Stability of Vitamin Es in AB Red ([2]; 8° C., 300 days): 11.2 µg/mL
Stability of Vitamin Es in AB Red ([2]; 8° C., 330 days): 11.3 µg/mL
Stability of Vitamin Es in AB Red ([2]; 8° C., 390 days): 11.4 µg/mL
Stability of Vitamin Es in AB Red ([2]; 8° C., 420 days): 11.2 µg/mL
Stability of Vitamin Es in AB Red ([2]; 8° C., 450 days): 11.4 µg/mL
Stability of Vitamin Es in AB Red ([2]; 8° C., 480 days): 10.7 µg/mL
Stability of Vitamin Es in AB Red ([2]; 8° C., 510 days): 10.6 µg/mL
Stability of Vitamin Es in AB Red ([2]; 8° C., 540 days): 10.8 µg/mL
Stability of Vitamin Es in AB Red ([2]; 8° C., 570 days): 10.8 µg/mL
Stability of Vitamin Es in AB Red ([2]; 21-25° C., 0 days): 12.5 µg/mL
Stability of Vitamin Es in AB Red ([2]; 21-25° C., 1 days): 12.1 µg/mL
Stability of Vitamin Es in AB Red ([2]; 21-25° C., 2 days): 12.5 µg/mL
Stability of Vitamin Es in AB Red ([2]; 21-25° C., 3 days): 11.7 µg/mL
Stability of Vitamin Es in AB Red ([2]; 21-25° C., 5 days): 12.2 µg/mL
Stability of Vitamin Es in AB Red ([2]; 21-25° C., 8 days): 11.4 µg/mL
Stability of Vitamin Es in AB Red ([2]; 21-25° C., 9 days): 11.6 µg/mL
Stability of Vitamin Es in AB Red ([2]; 21-25° C., 10 days): 12.5 µg/mL
Stability of Vitamin Es in AB Red ([2]; 21-25° C., 11 days): 12.3 µg/mL
Stability of Vitamin Es in AB Red ([2]; 21-25° C., 12 days): 12.3 µg/mL
Stability of Vitamin Es in AB Red ([2]; 21-25° C., 15 days): 12.1 µg/mL
Stability of Vitamin Es in AB Red ([2]; 21-25° C., 16 days): 12.1 µg/mL
Stability of Vitamin Es in AB Red ([2]; 21-25° C., 17 days): 11.3 µg/mL
Stability of Vitamin Es in AB Red ([2]; 21-25° C., 18 days): 12.0 µg/mL
Stability of Vitamin Es in AB Red ([2]; 21-25° C., 19 days): 12.0 µg/mL
Stability of Vitamin Es in AB Red ([2]; 21-25° C., 22 days): 12.1 µg/mL
Stability of Vitamin Es in AB Red ([2]; 21-25° C., 23 days): 11.7 µg/mL
Stability of Vitamin Es in AB Red ([2]; 21-25° C., 24 days): 11.5 µg/mL
Stability of Vitamin Es in AB Red ([2]; 21-25° C., 25 days): 12.4 µg/mL
Stability of Vitamin Es in AB Red ([2]; 21-25° C., 26 days): 12.0 µg/mL
Stability of Vitamin Es in AB Red ([2]; 21-25° C., 29 days): 11.9 µg/mL
Stability of Vitamin Es in AB Red ([2]; 21-25° C., 30 days): 12.6 µg/mL
Stability of Vitamin Es in AB Red ([2]; 21-25° C., 60 days): 11.6 µg/mL
Stability of Vitamin Es in AB Red ([2]; 21-25° C., 90 days): 12.3 µg/mL
Stability of Vitamin Es in AB Red ([2]; 21-25° C., 120 days): 12.3 µg/mL
Stability of Vitamin Es in AB Red ([2]; 21-25° C., 150 days): 11.4 µg/mL
Stability of Vitamin Es in AB Red ([2]; 21-25° C., 180 days): 12.0 µg/mL
Stability of Vitamin Es in AB Red ([2]; 21-25° C., 210 days): 11.6 µg/mL
Stability of Vitamin Es in AB Red ([2]; 21-25° C., 240 days): 11.3 µg/mL
Stability of Vitamin Es in AB Red ([2]; 21-25° C., 270 days): 11.4 µg/mL
Stability of Vitamin Es in AB Red ([2]; 21-25° C., 300 days): 11.2 µg/mL
Stability of Vitamin Es in AB Red ([2]; 21-25° C., 330 days): 11.6 µg/mL
Stability of Vitamin Es in AB Red ([2]; 21-25° C., 390 days): 11.3 µg/mL
Stability of Vitamin Es in AB Red ([2]; 21-25° C., 420 days): 11.3 µg/mL
Stability of Vitamin Es in AB Red ([2]; 21-25° C., 450 days): 11.2 µg/mL
Stability of Vitamin Es in AB Red ([2]; 21-25° C., 480 days): 10.4 µg/mL
Stability of Vitamin Es in AB Red ([2]; 21-25° C., 510 days): 10.4 µg/mL
Stability of Vitamin Es in AB Red ([2]; 21-25° C., 540 days): 10.6 µg/mL
Stability of Vitamin Es in AB Red ([2]; 21-25° C., 570 days): 10.6 µg/mL

From patent US20240415914A1, “Water Dispersible Cannabinoid Compositions” (priority 2021, published 2024)
